Measured values taken from ChEMBL document CHEMBL1151604, “Enantiomerically pure synthesis and antiviral evaluation of [(2S, 3S)-bis(hydroxymethyl)azetidin-1-yl] purine nucleosides: Analogs of oxetanocin-A” (Bioorg Med Chem Lett, 1995).
Values after ≈ are worked out from the molar mass of the structure shown.

Key:
Format in all cases: functional, cell-based
MT4 = assay: In vitro evaluation of antiviral activity against HSV-1 (Herpes simplex virus-1) induced cytopathic effect in MT-4 cells by indirect immunofluorescence assay; conditions: Homo sapiens
Vero [1] = assay: In vitro evaluation of antiviral activity against HSV-1 (Herpes simplex virus-1) induced cytopathic effect in vero cells by a plaque reduction assay; conditions: Chlorocebus sabaeus
Vero [2] = assay: Compound was evaluated for cytotoxicity against vero cells up to a concentration of 100 ug/mL; non toxic; conditions: Chlorocebus sabaeus
Vero [3] = assay: In vitro evaluation of antiviral activity against HSV-2 (Herpes simplex virus-2) induced cytopathic effect in vero cells by a plaque reduction assay; conditions: Chlorocebus sabaeus

Compound | EC50 (MT4) [µg/mL] | EC50 (Vero [1]) [µg/mL] | Activity (Vero [2]) | EC50 (Vero [3]) [µg/mL]
O=c1[nH]cnc2c1ncn2[C@H]1CC[C@@H](CO)O1 [DIDANOSINE] | 0.46 (≈ 1.95 µM) |  |  | 
Nc1nc(O)c2ncn(N3CC(CO)C3CO)c2n1 (configuration not stated) | 0.46 (≈ 1.73 µM) | 5.36 (≈ 20.1 µM) | Not toxic | 6.32 (≈ 23.7 µM)
Nc1ncnc2c1ncn2N1CC(CO)C1CO (configuration not stated) | 0.37 (≈ 1.48 µM) | 33.2 (≈ 133 µM) | Not toxic | 34.9 (≈ 139 µM)
Cc1cn([C@H]2C[C@H](N=[N+]=[N-])[C@@H](CO)O2)c(=O)[nH]c1=O [ZIDOVUDINE] | 0.0032 (≈ 0.012 µM) |  |  | 
Nc1nc2c(ncn2COCCO)c(=O)[nH]1 [ACYCLOVIR] |  | 0.32 (≈ 1.42 µM) |  | 0.39 (≈ 1.73 µM)
